Source: patent publication US11827616B2, “Heterocyclic compounds as pesticides” (Discovery Purchaser Corporation, priority 2018, dated 2023)
Read-outs that look alike come from different tables or passages of the source.

Assays:
Type in all cases: in vivo
Phaedon cochleariae = Phaedon cochleariae spray test; conditions: for pest or weed control at 500 g/ha: Phaedon cochleariae, 168 h, read-out: efficacy
Protocol: Phaedon cochleariae—Spray Test
(§1) Solvent: 78.0 parts by weight of acetone • • 1.5 parts by weight of dimethylformamide
(§2) Emulsifier: alkylaryl polyglycol ether
(§3) To produce a suitable active compound formulation, 1 part by weight of active compound is dissolved with the specified parts by weight of solvent and made up to the desired concentration with water containing an emulsifier concentration of 1000 ppm. To produce further test concentrations, the formulation is diluted with emulsifier-containing water.
Discs of Chinese cabbage leaves (Brassica pekinensis) are sprayed with an active compound formulation of the desired concentration and, after drying, populated with larvae of the mustard beetle (Phaedon cochleariae).
After 7 days, the efficacy in % is determined. 100% means that all the beetle larvae have been killed; 0% means that no beetle larvae have been killed.

Spodoptera frugiperda = Spodoptera frugiperda spray test; conditions: for pest or weed control at 500 g/ha: Spodoptera frugiperda, 168 h, read-out: efficacy
Protocol: Spodoptera frugiperda—Spray Test
as §1, §2, §3
Leaf discs of maize (Zea mays) are sprayed with an active compound formulation of the desired concentration and, after drying, populated with caterpillars of the fall armyworm (Spodoptera frugiperda).
After 7 days, the efficacy in % is determined. 100% means that all the caterpillars have been killed; 0% means that no caterpillar has been killed.

Boophilus microplus = Boophilus microplus injection test; conditions: for efficacy (laying of fertile eggs): application rate 20 μg/animal, after 7 days
Protocol: Boophilus microplus—Injection Test
(§4) Solvent: dimethyl sulfoxide
To produce a suitable active compound formulation, 10 mg of active compound are mixed with 0.5 ml of solvent and the concentrate is diluted to the desired concentration with solvent.
1 μl of the active compound solution is injected into the abdomen of 5 engorged adult female cattle ticks (Boophilus microplus). The animals are transferred into dishes and kept in a climate-controlled room.
Efficacy is assessed after 7 days by laying of fertile eggs. Eggs which are not visibly fertile are stored in a climate-controlled cabinet until the larvae hatch after about 42 days. An efficacy of 100% means that none of the ticks has laid any fertile eggs; 0% means that all the eggs are fertile.

Lucilia cuprina = Lucilia cuprina test; conditions: application rate 100 ppm; L1 larvae; after 2 days
Protocol: as §4
To produce a suitable active compound formulation, 10 mg of active compound are mixed with 0.5 ml of dimethyl sulfoxide, and the concentrate is diluted with water to the desired concentration.
About 20 L1 larvae of the Australian sheep blowfly (Lucilia cuprina) are transferred into a test vessel containing minced horsemeat and the active compound formulation of the desired concentration.
After 2 days, the kill in % is determined. 100% means that all the larvae have been killed; 0% means that no larvae have been killed.

[1] = application rate 500 g/ha, after 7 days

SMILES	efficacy (Phaedon cochleariae; [1]) [%]	efficacy (Spodoptera frugiperda; [1]) [%]	efficacy (laying of fertile eggs) (Boophilus microplus) [%]	other results
CON(C)CCOc1ccc(COc2ccc3oc4ccccc4c3c2)cn1 [Example 8]	100	100	–	–
CON(C)CCOc1ccc(COc2cccc3c(Cl)c(Cl)ccc23)nc1Cl [Example 18]	–	100	100	–
CON(C)CCOc1cnc(COc2ccc(Cl)c3ccccc23)c(Cl)c1 [Example 25]	–	100	100	–
CCN(CC)CCOc1ccc(COc2cccc3c(Cl)c(Cl)ccc23)nc1 [Example 33]	100	100	80	–
CN(CCOc1cnc(COc2ccc3oc4ccccc4c3c2)c(F)c1)C(C)(C)C.Cl [Example 35]	83	–	–	–
CN(CCOc1cnc(COc2cccc3c(Cl)c(Cl)ccc23)c(F)c1)C(C)(C)C [Example 36, N-{2-[(6-{[(5,6-dichloro-1-naphthyl)oxy]methyl}-5-fluoropyridin-3-yl)oxy]ethyl}-N,2-dimethylpropan-2-amine]	–	–	–	pest or weed control at 500 g/ha (Phaedon cochleariae): 100%; pest or weed control at 500 g/ha (Spodoptera frugiperda): 100%; pest or weed control at 0.02 mg (Boophilus microplus; Rhipicephalus microplus, 168 h, read-out: efficacy (laying of fertile eggs), application rate 20 μg/animal, after 7 days): 100%
CC(C)(C)NCCOc1cnc(COc2cccc3c(Cl)c(Cl)ccc23)c(F)c1 [Example 38]	100	100	100	efficacy (kill in %) (Lucilia cuprina): 80%
CC(C)N(CCOc1cnc(COc2ccc3oc4ccccc4c3c2)c(F)c1)C(C)C [Example 40]	100	–	–	–
Fc1cc(OCCN2CCCCC2)cnc1COc1cccc2c(Cl)c(Cl)ccc12 [Example 42]	–	100	–	–
CC(C)N(C)CCOc1cnc(COc2ccc3oc4ccccc4c3c2)c(F)c1 [Example 43]	100	–	–	–
CCN1CCN(c2cnc(COc3cccc4c(Cl)c(Cl)ccc34)c(F)c2)CC1 [Example 45]	100	100	–	–
CCN1CCN(c2cnc(COc3ccc4oc5ccccc5c4c3)c(F)c2)CC1 [Example 46]	–	83	–	–
CON(C)CCOc1ccc(COc2cccc3c(Cl)c(Cl)ccc23)nc1SC [Example 52, 2-{[6-{[(5,6-dichloro-1-naphthyl)oxy]methyl}-2-(methylsulfanyl)pyridin-3-yl]oxy}-N-methoxy-N-methylethanamine]	–	–	–	pest or weed control at 500 g/ha (Phaedon cochleariae; [1]): 100%; pest or weed control at 500 g/ha (Spodoptera frugiperda; [1]): 100%
CN(CCOc1cnc(COc2cccc(-c3cccc(OC(F)(F)F)c3)c2)c(F)c1)C(C)(C)C [Example 66]	100	100	–	–
CN(CCOc1cnc(COc2ccc(F)c(-c3cccc(OC(F)(F)F)c3)c2)c(F)c1)C(C)(C)C.Cl [Example 77]	83	100	–	efficacy (kill in %) (Lucilia cuprina): 90%
CC(C)N(CCOc1cnc(COc2ccc(Cl)c(OC(F)(F)F)c2)c(F)c1)C(C)C [Example 79]	100	–	–	–
CON(C)CCOc1cnc(COc2cccc(-c3cccc(F)c3)c2)c(F)c1 [Example 85]	–	83	–	–
COc1cc(OCCN(C)OC)cnc1COc1ccc(Cl)c2ccccc12 [Example 91]	83	–	100	efficacy (kill in %) (Lucilia cuprina): 80%
COc1cc(OCCN(C)OC)cnc1COc1cccc2c(Cl)c(Cl)ccc12 [Example 93]	–	–	100	efficacy (kill in %) (Lucilia cuprina): 100%
COc1cc(OCCN(C)OC)cnc1COc1cccc(-c2ccccc2)c1 [Example 94]	–	–	80	–
CON(C)CCOc1ncc(COc2ccc(Cl)c3ccccc23)cn1 [Example 98]	100	–	–	–
